“And” between values parts separate entries of the source, which are not always exact repeats. Equal entries are not always repeated.

The subject of series [1] is diabetic retinopathy having macular edema. The series can be described thus: Cases of diabetic retinopathy having macular edema, assessed by optical coherence tomography (OCT), HbA1c and vision. The class given is in vivo, human. As for the experimental part:
To four cases of diabetic retinopathy having macular edema to which conventional intraocular injection of steroid or anti-VEGF antibody was not effective, the therapeutic agent of the present invention (existing SGLT2 inhibitor) was administered at a normal dosage amount or at a lower dosage amount, and the effect was confirmed. Specifically, for the three cases using dapagliflozin and one case using canagliflozin, the effect was confirmed by assessment using optical coherence tomography (OCT). Person; suffering from type 2 diabetes, accompanied with proliferative retinopathy in both eyes, and macular edema in both eyes. Steroid sub-tenon injection was frequently performed but was treatment-resistant. […], person; suffering from type 2 diabetes, accompanied with proliferative retinopathy in both eyes, and macular edema in both eyes. Steroid sub-tenon injection was performed but was treatment-resistant. […], person; suffering from type 2 diabetes, accompanied with simple diabetic retinopathy in both eyes, and macular edema in right eye. […], person; suffering from type 2 diabetes, accompanied with preproliferative diabetic retinopathy in both eyes, and macular edema in right eye. Steroid intraocular injection was performed to right eye macular edema, but was resistant.

For series [2], the system named is increase of retinal vascular permeability in db/db mouse. The series can be described thus: Retinal vascular permeability (retinal albumin amount by western blot) in spontaneous type 2 diabetes model db/db mouse. The class given is in vivo. Particulars: oral. As for the experimental part:
Subsequently, the amelioration effect on diabetic retinal function (amelioration effect on permeability increase which is a representative abnormality of diabetic retinal vessels) by the therapeutic agent of the present invention (existing SGLT2 inhibitor agent) was confirmed by using spontaneous type 2 diabetes model db/db mouse.
Since 8 weeks after birth of spontaneous type 2 diabetes model db/db mouse, a dosage amount (10 mg/kg/day as luseogliflozin) of luseogliflozin hydrate which is an existing SGLT2 inhibitor agent, with which an antihyperglycemic action is confirmed in mouse was orally administered. Two weeks after administration of SGLT2 inhibitor agent, the mouse was euthanized, and all blood vessels were sufficiently refluxed with 10 ml of phosphate buffer solution (PBS), and the eyeballs were extracted. After isolating retina, the albumin amount in the retinal tissues leaked from the blood vessels was measured by western blott method, to assess the vascular permeability increase. The albumin amount in retina was corrected with […], and is shown by % control by using control db/+ mouse as a standard.
Next, similarly as for luseogliflozin, the function improvement on increase of retinal vascular permeability was assessed using canagliflozin. Canagliflozin hydrate which is an existing SGLT2 inhibitor agent was orally administered for 2 weeks, at a dosage amount (3 mg/kg/day as canagliflozin) with which an antihyperglycemic action is confirmed in mouse, and at a low dosage (0.01 mg/kg/day as canagliflozin) not showing an antihyperglycemic action.
A general note: In western blotting, separated proteins are transferred to a membrane and probed.

The test system of series [3] is spontaneous type 2 diabetes model db/db mouse. In words: Effects on body weight, feed intake, urine volume and blood sugar in db/db mouse. The class given is in vivo. Particulars: oral, 2 weeks. As for the experimental part:
The above-mentioned low dosage (0.01 mg/kg/day as canagliflozin) not showing an antihyperglycemic action was confirmed by the following method.
[…] Effects on body weight, feed intake, urine volume and blood sugar were confirmed.
FIGS. 6 and 7 show the results of fructosamine level which is an index for fasting blood sugar and average blood sugar levels when administering 3 mg/kg/day and 0.01 mg/kg/day of canagliflozin hydrate.

For another series, the target named is T1, SGLT2 (Homo sapiens, UniProt P31639).
T1 sequence (P31639 1-672): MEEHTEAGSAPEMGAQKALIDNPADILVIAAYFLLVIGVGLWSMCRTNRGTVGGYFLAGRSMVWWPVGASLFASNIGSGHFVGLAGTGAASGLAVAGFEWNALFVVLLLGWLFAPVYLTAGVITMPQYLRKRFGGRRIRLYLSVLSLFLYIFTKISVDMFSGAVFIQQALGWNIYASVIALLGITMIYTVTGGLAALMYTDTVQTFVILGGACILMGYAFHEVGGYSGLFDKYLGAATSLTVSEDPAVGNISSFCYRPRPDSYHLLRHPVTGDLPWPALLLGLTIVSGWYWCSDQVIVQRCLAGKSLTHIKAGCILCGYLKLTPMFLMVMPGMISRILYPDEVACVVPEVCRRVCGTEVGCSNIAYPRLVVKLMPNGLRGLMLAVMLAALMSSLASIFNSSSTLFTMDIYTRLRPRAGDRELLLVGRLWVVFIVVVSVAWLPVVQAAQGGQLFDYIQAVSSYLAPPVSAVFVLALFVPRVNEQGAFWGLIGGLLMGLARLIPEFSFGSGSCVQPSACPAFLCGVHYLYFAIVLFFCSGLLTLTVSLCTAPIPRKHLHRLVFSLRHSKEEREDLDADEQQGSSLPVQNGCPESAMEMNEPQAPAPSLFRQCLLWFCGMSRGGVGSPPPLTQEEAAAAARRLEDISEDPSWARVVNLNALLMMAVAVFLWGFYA
Particulars: cited from earlier work.

The conditions of series [4]: authorized minimum dosage amount; cited from earlier work.

As to `CCOc1ccc(Cc2cc([C@@H]3O[C@H](CO)[C@@H](O)[C@H](O)[C@H]3O)ccc2Cl)cc1` [dapagliflozin propylene glycol hydrate], the HbA1 after administration in series [1] (Case 1, 2.5 mg/day as dapagliflozin, 6.7 before administration) worked out at 6.6. The “vision, left eye, after administration” value in series [1] (Case 1, 2.5 mg/day as dapagliflozin, did not change) was found to be 1.2. Also, the “vision, right eye, after administration” value in series [1] (Case 1, 2.5 mg/day as dapagliflozin, from 0.7) is 0.8. In series [1] (Case 3, 2.5 mg/day as dapagliflozin, from 0.15), the vision after administration is 0.2. Further, the HbA1c after administration is recorded as 8.0 in series [1] (Case 3, 2.5 mg/day as dapagliflozin, from 8.7) and 6.1% in series [1] (Case 4, 2.5 mg/day as dapagliflozin, from 5.9, no change). The molecule also registered a vision in series [1] (Case 4, 2.5 mg/day as dapagliflozin, did not change due to severe retinopathy) of 0.1.
For `Cc1ccc([C@@H]2O[C@H](CO)[C@@H](O)[C@H](O)[C@H]2O)cc1Cc1ccc(-c2ccc(F)cc2)s1` [canagliflozin hydrate], the blood sugar control result in series [1] (Case 2, 100 mg/day as canagliflozin) is “no change in blood sugar control”. Besides, the HbA1 after administration in series [1] (Case 2, 100 mg/day as canagliflozin, 8.0 before administration, hydrate) was 8.4 and 8.1 and 7.8. Further, the OCT findings entry in series [1] (Case 2, 100 mg/day as canagliflozin, about 5 months after initiation of administration) is “decrease of macular retinal thickness, cyst reduction, and significant amelioration of laminar structure”. The “vision, right eye, after administration” value in series [1] (Case 2, 100 mg/day as canagliflozin, from 0.4) is listed as 0.5. Also, in series [1] (Case 2, 100 mg/day as canagliflozin, from 0.7), the “vision, left eye, after administration” value is recorded as 1.2. The “increase of retinal albumin amount (retinal vascular permeability)” value in series [2] (0.01 mg/kg/day as canagliflozin, 2 weeks) is on record as “significantly ameliorated to the control group level”; in series [2] (3 mg/kg/day as canagliflozin, 2 weeks) it was “significantly ameliorated to the control group level”. In addition, the blood sugar entry in series [3] (0.001 mg/kg/day) is “no significant decrease”; in series [3] (0.01 mg/kg/day, hydrate) it was “no significant blood sugar decrease”; in series [3] (0.1 mg/kg/day), “no significant decrease”. In series [3] (3 mg/kg/day, vs non-administered group (FIGS. 6 and 7)), the “fructosamine level which is an index for fasting blood sugar and average blood sugar levels” value was “significantly decreased”.
Take `CCc1ccc(Cc2ccc3c(c2)[C@]2(OC3)O[C@H](CO)[C@@H](O)[C@H](O)[C@H]2O)cc1` [tofogliflozin hydrate]: the “IC50 level showing the inhibition activity, compared with canagliflozin” value at SGLT2 is listed as “similar”. In series [4], the “maximum blood concentration (Cmax) in the minimum dosage amount, relative to that of canagliflozin” value is on record as “approximately 1/10”.
For `CCOc1ccc(Cc2cc([C@@H]3S[C@H](CO)[C@@H](O)[C@H](O)[C@H]3O)c(OC)cc2C)cc1` [luseogliflozin hydrate], the “IC50 level showing the inhibition activity, compared with canagliflozin” value at SGLT2 was “similar”. Also, the “maximum blood concentration (Cmax) in the minimum dosage amount, relative to that of canagliflozin” value in series [4] is given as “approximately 1/10”. The “increase of retinal albumin amount (retinal vascular permeability)” value in series [2] (10 mg/kg/day as luseogliflozin, two weeks) is listed as “significantly ameliorated to the control group level”.
For `OC[C@H]1O[C@@H](c2ccc(F)c(Cc3cc4ccccc4s3)c2)[C@H](O)[C@@H](O)[C@@H]1O` [ipragliflozin L-proline], the “IC50 level showing the inhibition activity, compared with canagliflozin” value on SGLT2 is on record as “similar”.
In the case of `OC[C@H]1O[C@@H](c2ccc(Cl)c(Cc3ccc(O[C@H]4CCOC4)cc3)c2)[C@H](O)[C@@H](O)[C@@H]1O` [empagliflozin], the “IC50 level showing the inhibition activity, compared with canagliflozin” value on SGLT2 is reported as “similar”. Further, in series [4], the “maximum blood concentration (Cmax) in the minimum dosage amount, relative to that of canagliflozin” value is on record as “approximately 1/10”.

Values taken from US10821126B2, “Agent for treating retinopathy” (CARNA HEALTH SUPPORT LTD., priority 2016, dated 2020).
